Results reported in patent US20140350119A1, “OPHTHALMIC COMPOSITION COMPRISING GERANYLGERANYLACETONE” (ROHTO PHARMACEUTICAL CO., LTD., priority 2012, published 2014).

Experiments:
[1] = test system: multiple sclerosis mouse model; conditions: oral administration; Non Patent Literature 5; cited from earlier work
[2] = test system: retinal detachment-induced animal; conditions: intraperitoneal administration; Non Patent Literature 1; cited from earlier work
[3] = test system: mouse with visual cell damage induced by light irradiation; conditions: oral administration; Non Patent Literature 3; cited from earlier work
[4] = test system: rat models with glaucoma induced by NMDA; assay: Protective effect for retinal ganglion cells against nerve damage by NMDA (thickness of inner plexiform layer); type: in vivo, Sprague-Dawley (SD) rats; conditions: once per day
Excerpt: In recent years the glutamate analogue NMDA (N-methyl-D-aspartate) has been widely reported to be one of causative agents of neurodegenerative diseases including Alzheimer's disease. In the ophthalmic field, NMDA is considered to be involved in optic nerve damage in glaucoma (Brain Research Bulletin, 81 (2010) 349-358). Accordingly, in this experiment rat models with glaucoma induced by NMDA were used to evaluate the neuroprotective effect of GGA.
To Sprague-Dawley (SD) rats, the all-trans form, the 5Z-mono-cis form and teprenone were separately pre-administered by oral administration (Test Example 1), intravitreal administration (Test Example 2) or ocular instillation administration (Test Example 3) and 5 μL of NMDA was administered into the vitreous body to induce nerve damage. For Test Example 2, a marketed therapeutic eye drop for glaucoma, AIPHAGAN (trade name), was intravitreally administered as a positive control once a day for five days. For each of Test Examples, a base not containing GGA or AIPHAGAN was administered as a control in the same manner as described above.
The dosage and regimen of Test Examples 1 to 3 are shown in Table 1 and the constitution of the base used in each tests are shown in Table 2.
Three days after administration of NMDA, the eyeballs were harvested, fixed with half Karnovsky's fixative for 24 hours, embedded in paraffin, thin sectioned and stained with hematoxylin-eosin (HE) to prepare histopathological sections. The histological sections were observed under an optical microscope and the thickness (μm) of the inner plexiform layer (IPL) of the retina was measured. From the thickness of the inner plexiform layer (IPL) of the retina, the neuroprotective effects of the test preparations were evaluated.

glaucoma rat model = conditions: intraperitoneal administration; Non Patent Literature 2; cited from earlier work
[5] = test system: mouse with retinal injury induced by ischemia; conditions: oral administration; Non Patent Literature 4; cited from earlier work
PC12 = assay: Protective effect against ischemic cell death induced by hypoxia and low glucose (cell viability, Cell Titer-Glo); type: cell-based, rat; conditions: 30 μM, 2 h, then low glucose, zero percent O2, 8 h, FIG. 1, Tukey-Kramer test
Excerpt: The progress of visual impairment in glaucoma is associated with retinal ganglion cell (RGC) death due to blood flow failure occurring near the optic nerve (Folia Pharmacol. Jpn. 128, 255-258 (2006)). With the use of PC12, which is a typical neural cell line established from rat adrenal […] pheochromocytoma and used also as a model cell for the functional evaluation of RGC (J Neurosci Res. 2000 May 15; 60(4): 495-503.), the cytoprotective effect of GGA against ischemic cell death induced by hypoxia and low glucose was evaluated.
Test samples were prepared as follows. The test substances were four types of GGAs that contain the all-trans form and the 5Z-mono-cis form at a weight ratio of 10:0, 8:2, 6:4, and 0:10, respectively. […]
After 8 hours of incubation, 100 μL of an equivalent mixture of a cell viability detection reagent Cell Titer-Glo (Promega) and PBS was added to each well and the luminescence produced by the reaction with ATP in living cells was measured with a luminometer (GloMax; Promega). The cell viability was calculated from the measured luminescence by the following formula and the cytoprotective effect of GGA against […] was examined.
Cell viability (%)=100×[(luminescence of base- or GGA-treated group)/(luminescence of non-treated group)]

[6] = Test Example 1: oral, 800 mg/kg, 2 days, NMDA 4 mM, FIG. 6

Compound	Cell loss in the ganglion [1]	Number of degenerating axons in the optic nerve [1]	Visual function [1]	Apoptosis of visual cells [2]	Expression of heat shock protein 70 [2]	Thioredoxin and heat shock protein 72 in the retinal pigment epithelium [3]	Neuroprotective effect against nerve damage by NMDA compared with the base (IPL thickness) [4, 6]	Expression of heat shock protein 72 (glaucoma rat model)	Optic nerve damage (glaucoma rat model)	Retinal ganglion cell death (glaucoma rat model)	Number of surviving retinal neurons [5]	Neuroprotective effect against nerve damage by NMDA compared with the base (IPL thickness) ([4]; Test Example 2: intravitreal, 0.05% w/v, 5 days, NMDA 40 mM, FIG. 7)	Cytoprotective effect compared with GGA of weight ratio 6:4 (PC12)
teprenone	prevented cell loss	reduced the number of degenerating axons	improved the visual function	reduced the apoptosis of visual cells significantly	induced the expression of heat shock protein 70	induced thioredoxin and heat shock protein 72	did not show a significant neuroprotective effect	induced the expression of heat shock protein 72	ameliorated optic nerve damage	reduced retinal ganglion cell death	significantly increased	–	–
CC(=O)CC/C=C(/C)CC/C=C(\C)CC/C=C(\C)CCC=C(C)C [5Z-mono-cis form, (5Z,9E,13E)-6,10,14,18-tetramethyl-5,9,13,17-nonadecatetrae n-2-one]	–	–	–	–	–	–	significant neuroprotective effects	–	–	–	–	significant neuroprotective effects	significantly higher cytoprotective effects
